Measured values published in article PMC7539557 (ACS infectious diseases, 2020).
Where “and” joins values, the source holds several entries; their conditions need not be identical. Identical values can stand only once. Entries after “also recorded” stand apart in the source; their conditions may differ. Like-named read-outs stand apart in the source and are kept apart here.

What was measured:
[1] = tested on: MHV-A59; assay type: cell-based, Murine hepatitis virus; settings: for IC50: DFMO pretreatment 4 days, CPX, DEF, GC7 24h
[2] = tested on: MHV; experiment: Direct incubation of MHV with compound, then titering; design: species or system Murine hepatitis virus; settings: 10 μM for 24h, then titered
[3] = tested on: SARS-CoV-2; assay type: cell-based; settings: 5 mM DFMO, Vero-E6, MOI 0.1, 24 hpi
[4] = tested on: MHV-A59; assay type: cell-based, Murine hepatitis virus
[5] = tested on: MHV-A59; experiment: Plaque size measurement with DFMO applied at time of infection; assay type: cell-based, Murine hepatitis virus
[6] = tested on: MHV; experiment: MHV attachment assays; assay type: cell-based, Murine hepatitis virus
[7] = tested on: HCoV-NL63; experiment: HCoV-NL63 qPCR-based attachment assay on Vero-E6 cells; assay type: cell-based; settings: DFMO-treated Vero-E6 cells
[8] = tested on: SARS-CoV-2 pseudoparticles; assay type: cell-based; settings: DFMO-treated Vero-E6 cells
[9] = tested on: cellular polyamines; experiment: Thin-layer chromatography of cell-associated polyamines; assay type: cell-based
[10] = tested on: HeLa-R cells
[11] = tested on: MERS-CoV; settings: in vitro, dose of 500 μM; cited from earlier work
[12] = tested on: BHK-R cells

NCCCCN [putrescine]
effect of exogenous polyamine on MHV titers [1]: modestly reduced viral titers
rescue of MHV replication in DFMO-treated cells [1]: rescued virus replication to untreated levels
infectivity of MHV after direct incubation [2]: titers were unchanged

NCCCC(N)(C(=O)O)C(F)F (stereo not shown) [DFMO, difluoromethylornithine]
reduction of SARS-CoV-2 genomes [3]: greater than 50 fold
MHV genome levels in supernatant (qPCR) [1]: reduced genome levels
MHV production after repeated versus single dosing [1]: repeated dosing is as effective as a single drug treatment
MHV titers over several rounds of replication [1]: reduced viral titers compared to no treatment group up to 72 h
antiviral effect after drug removal [1]: completely reversed
specific infectivity (genomes per PFU) [1]: increased the ratio of genomes to titer
IC50 [1]: 380 µM
IC50 [4]: ~7 µM and 7 µM
infectivity of MHV after direct incubation [2]: titers were unchanged
plaque size ([5]; BHK-R cells, DFMO in overlay media at time of infection): no changes in plaque size
plaque area ([5]; HeLa-R cells, DFMO at time of infection): small, though statistically insignificant change
attachment and plaque formation [6]: significantly inhibited
bound viral genomes (qRT-PCR) [6]: significantly reduced
HCoV-NL63 attachment [7]: attachment was sensitive to DFMO treatment
cellular attachment of SARS-CoV-2 pseudoparticles [8]: reduction in cellular attachment of SARS-CoV-2 pseudoparticles in a dose-dependent manner
polyamine levels by TLC ([9]; BHK-R cells): depleted polyamines
polyamine levels by TLC ([9]; HeLa-R cells, DENSpm at 10 μM): reduced polyamines
polyamine levels by TLC ([9]; Vero-E6 cells, 750 μM to 5 mM DFMO): successfully depleted polyamines
toxicity [10]: not toxic to these cells
sensitivity of MERS-CoV [11]: sensitive

NCCCCNCCCN [spermidine]
effect of exogenous polyamine on MHV titers [1]: modestly reduced viral titers; also recorded: does not inhibit or restrict virus replication
rescue of MHV replication in DFMO-treated cells [1]: rescued virus replication to untreated levels
infectivity of MHV after direct incubation [2]: titers were unchanged

Cc1cc(C2CCCCC2)n(O)c(=O)c1 [CPX, ciclopirox]
MHV replication [1]: significantly reduced MHV replication in a dose-dependent manner
cytotoxicity [12]: cytotoxicity was minimal

Cc1c(O)c(=O)ccn1C [DEF, deferiprone]
MHV replication [1]: significantly reduced MHV replication in a dose-dependent manner
cytotoxicity [12]: cytotoxicity was minimal

NCCCCCCCN=C(N)N [GC7]
MHV replication [1]: significantly reduced MHV replication in a dose-dependent manner
IC50 [1]: 7.4 µM
cytotoxicity [12]: cytotoxicity was minimal

NCCCNCCCCNCCCN [spermine]
effect of exogenous polyamine on MHV titers [1]: modestly reduced viral titers; also recorded: reduces virus replication
rescue of MHV replication in DFMO-treated cells [1]: rescued virus replication to untreated levels
infectivity of MHV after direct incubation [2]: titers were unchanged
cytotoxicity [12]: significant cytotoxicity
